From US20250179066A1, “ZWITTERIONIC ANTIBACTERIAL COMPOUNDS” (Hoffmann-La Roche Inc., priority 2022, published 2025) come the findings set out here.

As usually defined, the IC90 is the concentration needed for an effect of 90%.

The structures appear in SMILES notation. Where a name gives a salt, the structure may show the parent alone.

The first experiment deals with Acinetobacter baumannii ATCC17961. The experiment is described as follows: Antimicrobial susceptibility testing: 90% growth inhibitory concentration (IC90) determination. To be noted: 90% growth inhibitory concentration against Acinetobacter baumannii ATCC17961, Iso-Sensitest broth, OD 600 nm over 16 h; read-out: ATCC 17961 IC90. The experiment is classed as cell-based. On the procedure: The in vitro antimicrobial activity of the compounds was determined according to the following procedure: The assay used a 10-points Iso-Sensitest broth medium to measure quantitatively the in vitro activity of the compounds against Acinetobacter baumannii ATCC17961. Stock compounds in DMSO were serially twofold diluted (e.g. range from 10 to 0.0195 μM final concentration) in 384 wells microtiter plates and inoculated with 49 μL the bacterial suspension in Iso-Sensitest medium to have a final cell concentration of ˜5×10^(5) CFU/mL in a final volume/well of 50 μL/well. Microtiter plates were incubated at 35±2° C. Bacterial cell growth was determined with the measurement of optical density at λ=600 nm each min over a time course of 16 h. Growth inhibition was calculated during the logarithmic growth of the bacterial cells with determination of the concentration inhibiting 50% (IC50) and 90% (IC90) of the growth. Table 1 provides the 90% growth inhibitory concentrations (IC90) in micromoles per liter of the compounds of present invention obtained against the strain Acinetobacter baumannii ATCC17961.
Take `Cn1c(-c2cn(-c3ccc(NCCN)cn3)nc2C(F)(F)F)cnc1C(=O)Nc1ccc(C(=O)N2CCN(C(=O)[C@H]3CC[N@+](CC(=O)O)(CC4CNC4)CC3)CC2)c(Cl)c1` [Example 73, cis-2-[4-[4-[4-[[5-[1-[5-(2-aminoethylamino)-2-pyridyl]-3-(trifluoromethyl)pyrazol-4-yl]-1-methyl-imidazole-2-carbonyl]amino]-2-chloro-benzoyl]piperazine-1-carbonyl]-1-(azetidin-3-ylmethyl)piperidin-1-ium-1-yl]acetic acid; formic acid; formate]: the 90% effect concentration (IC90) was determined as 0.87 µM.

The experiment is the same for the next values; noted with them: Acinetobacter baumannii, ATCC17961, 16 h, 90% growth inhibitory concentration against Acinetobacter baumannii ATCC17961, Iso-Sensitest broth, OD 600 nm over 16 h; read-out: ATCC 17961 IC90.
In the case of `Cn1c(-c2cn(-c3ccc4[nH]c(CO)cc4n3)nc2C(F)(F)F)cnc1C(=O)Nc1ccc(C(=O)N2CCC(C(=O)N3CC[N+](CCCN)(CC(=O)O)CC3)CC2)c(Cl)c1` [Example 134, 2-[1-(3-aminopropyl)-4-[1-[2-chloro-4-[[1-methyl-5-[1-(2-methylol-1H-pyrrolo[3,2-b]pyridin-5-yl)-3-(trifluoromethyl)pyrazol-4-yl]imidazole-2-carbonyl]amino]benzoyl]isonipecotoyl]piperazin-1-ium-1-yl]acetic acid. 1:1 2,2,2-trifluoroacetate], the IC90 amounted to 0.327 µM.
On the same count and under the same terms, for `CN(C)CC[N@+]1(CC(=O)O)CC[C@H](C(=O)N2CCN(C(=O)c3ccc(NC(=O)c4ncc(-c5cn(-c6ccc(N)cc6F)nc5C(F)(F)F)n4C)cc3Cl)CC2)CC1` [Example 187, trans-2-[4-[4-[4-[[5-[1-(4-amino-2-fluoro-phenyl)-3-(trifluoromethyl)pyrazol-4-yl]-1-methyl-imidazole-2-carbonyl]amino]-2-chloro-benzoyl]piperazine-1-carbonyl]-1-[2-(dimethylamino)ethyl]piperidin-1-ium-1-yl]acetic acid;2,2,2-trifluoroacetate] the value was 0.745 µM; for `Cn1c(-c2cn(-c3cc4[nH]c(C(=O)N5CC6(CCOCC6)C5)cc4cn3)nc2C(F)(F)F)cnc1C(=O)Nc1ccc(C(=O)N2CCN(C(=O)[C@H]3CC[N@+](CC(=O)O)(CC4CNC4)CC3)CC2)c(Cl)c1` [Example 113, cis-2-[1-(azetidin-3-ylmethyl)-4-[4-[2-chloro-4-[[1-methyl-5-[1-[2-(7-oxa-2-azaspiro[3.5]nonane-2-carbonyl)-1H-pyrrolo[3,2-c]pyridin-6-yl]-3-(trifluoromethyl)pyrazol-4-yl]imidazole-2-carbonyl]amino]benzoyl]piperazine-1-carbonyl]piperidin-1-ium-1-yl]acetic acid. 1:1 2,2,2-trifluoroacetate], 0.707 µM.
Same read-out and setting: for `Cn1c(-c2cn(-c3cc4c(ccn4CC(N)=O)cn3)nc2C(F)(F)F)cnc1C(=O)Nc1ccc(C(=O)N2CCN(C(=O)[C@H]3CC[N@+](CC(=O)O)(CC4CNC4)CC3)CC2)c(Cl)c1` [Example 168, cis-2-[4-[4-[4-[[5-[1-[1-(2-amino-2-keto-ethyl)pyrrolo[3,2-c]pyridin-6-yl]-3-(trifluoromethyl)pyrazol-4-yl]-1-methyl-imidazole-2-carbonyl]amino]-2-chloro-benzoyl]piperazine-1-carbonyl]-1-(azetidin-3-ylmethyl)piperidin-1-ium-1-yl]acetic Acid.1:1 2,2,2-trifluoroacetate] the value was 0.555 µM.
Turning to `Cn1c(-c2cn(-c3ccc4[nH]c(CO)cc4n3)nc2C(F)(F)F)cnc1C(=O)Nc1ccc(C(=O)N2CCN(C(=O)C3CC[N+](CCCN)(CC(=O)O)CC3)CC2)c(Cl)c1` (stereo not drawn) [Example 145], the 90% effect concentration (IC90) is 0.205 µM.
Same read-out and setting: for `Cn1c(-c2cn(-c3cc4[nH]c(C(=O)NCCO)cc4cn3)nc2C(F)(F)F)cnc1C(=O)Nc1ccc(C(=O)N2CCN(C(=O)[C@H]3CC[N@+](CC(=O)O)(CC4CNC4)CC3)CC2)c(Cl)c1` [Example 115, cis-2-[1-(azetidin-3-ylmethyl)-4-[4-[2-chloro-4-[[5-[1-[2-(2-hydroxyethylcarbamoyl)-1H-pyrrolo[3,2-c]pyridin-6-yl]-3-(trifluoromethyl)pyrazol-4-yl]-1-methyl-imidazole-2-carbonyl]amino]benzoyl]piperazine-1-carbonyl]piperidin-1-ium-1-yl]acetic acid. 1:1 2,2,2-trifluoroacetate] the value was 0.295 µM.
As to `Cn1c(-c2cn(-c3cc4[nH]c(C(=O)NC5CCNC5=O)cc4cn3)nc2C(F)(F)F)cnc1C(=O)Nc1ccc(C(=O)N2CCN(C(=O)[C@H]3CC[N@+](CC(=O)O)(CC4CNC4)CC3)CC2)c(Cl)c1` (stereo partly drawn) [Example 120, cis-2-[1-(azetidin-3-ylmethyl)-4-[4-[2-chloro-4-[[5-[1-[2-[(2-ketopyrrolidin-3-yl)carbamoyl]-1H-pyrrolo[3,2-c]pyridin-6-yl]-3-(trifluoromethyl)pyrazol-4-yl]-1-methyl-imidazole-2-carbonyl]amino]benzoyl]piperazine-1-carbonyl]piperidin-1-ium-1-yl]acetic acid. 1:1 2,2,2-trifluoroacetate], the concentration for an effect of 90% (IC90) was found to be 0.527 µM.
Regarding `Cn1c(-c2cn(-c3ccc4[nH]c(CO)cc4n3)nc2C(F)(F)F)cnc1C(=O)Nc1ccc(C(=O)N2CCN(C(=O)[C@H]3CC[N@+](CC(=O)O)(CC4CNC4)CC3)CC2)c(F)c1` [Example 151, cis-2-[1-(azetidin-3-ylmethyl)-4-[4-[2-fluoro-4-[[1-methyl-5-[1-(2-methylol-1H-pyrrolo[3,2-b]pyridin-5-yl)-3-(trifluoromethyl)pyrazol-4-yl]imidazole-2-carbonyl]amino]benzoyl]piperazine-1-carbonyl]piperidin-1-ium-1-yl]acetic acid. 1:1 2,2,2-trifluoroacetate], the IC90 is 0.403 µM.
For the compound `Cn1c(-c2cn(-c3cc4[nH]c(C(=O)N5CCO[C@]6(CCOC6)C5)cc4cn3)nc2C(F)(F)F)cnc1C(=O)Nc1ccc(C(=O)N2CCN(C(=O)[C@H]3CC[N@+](CC(=O)O)(CC4CNC4)CC3)CC2)c(Cl)c1` [Example 121, cis-2-[1-(azetidin-3-ylmethyl)-4-[4-[2-chloro-4-[[5-[1-[2-[(5R)-2,6-dioxa-9-azaspiro[4.5]decane-9-carbonyl]-1H-pyrrolo[3,2-c]pyridin-6-yl]-3-(trifluoromethyl)pyrazol-4-yl]-1-methyl-imidazole-2-carbonyl]amino]benzoyl]piperazine-1-carbonyl]piperidin-1-ium-1-yl]acetic acid. 1:1 2,2,2-trifluoroacetate], the concentration for an effect of 90% (IC90) came to 0.375 µM.
Regarding `Cn1c(-c2cn(-c3ccc4[nH]ccc4n3)nc2C(F)(F)F)cnc1C(=O)Nc1ccc(C(=O)N2CCN(C(=O)CCC[N+](CCCCN)(CCCCN)CC(=O)O)CC2)c(Cl)c1` [Example 9, Bis(4-aminobutyl)-(carboxymethyl)-[4-[4-[2-chloro-4-[[1-methyl-5-[1-(1H-pyrrolo[3,2-b]pyridin-5-yl)-3-(trifluoromethyl)pyrazol-4-yl]imidazole-2-carbonyl]amino]benzoyl]piperazino]-4-keto-butyl]ammonium.1:1 2,2,2-trifluoroacetic Acid. 1:1 2,2,2-trifluoroacetate], the IC90 worked out at 0.1 µM.
On to `Cn1c(-c2cn(-c3cc(N)ccn3)nc2C(F)(F)F)cnc1C(=O)Nc1ccc(C(=O)N2CCN(C(=O)C3CC[N+](CC(=O)O)(CC4CNC4)CC3)CC2)c(Cl)c1` (stereo not drawn) [Example 71, 2-[4-[4-[4-[[5-[1-(4-amino-2-pyridyl)-3-(trifluoromethyl)pyrazol-4-yl]-1-methyl-imidazole-2-carbonyl]amino]-2-chloro-benzoyl]piperazine-1-carbonyl]-1-(azetidin-3-ylmethyl)piperidin-1-ium-1-yl]acetic acid. 1:1 2,2,2-trifluoroacetate], for which the IC90 turned out to be 0.86 µM.
Same read-out and setting: for `Cn1c(-c2cn(-c3ccc4c(cc(C(=O)NCCO)n4C)n3)nc2C(F)(F)F)cnc1C(=O)Nc1ccc(C(=O)N2CCN(C(=O)[C@H]3CC[N@@+](CCCN)(CC(=O)O)CC3)CC2)c(Cl)c1` [Example 104, cis-2-[1-(3-aminopropyl)-4-[4-[2-chloro-4-[[5-[1-[2-(2-hydroxyethylcarbamoyl)-1-methyl-pyrrolo[3,2-b]pyridin-5-yl]-3-(trifluoromethyl)pyrazol-4-yl]-1-methyl-imidazole-2-carbonyl]amino]benzoyl]piperazine-1-carbonyl]piperidin-1-ium-1-yl]acetic acid;chloride] the value was 0.783 µM; for `CNc1ccc(-n2cc(-c3cnc(C(=O)Nc4ccc(C(=O)N5CCN(C(=O)C6CC[N+](CC(=O)O)(CC7CNC7)CC6)CC5)c(Cl)c4)n3C)c(C(F)(F)F)n2)nc1` (stereo not drawn) [Example 25, 2-[1-(azetidin-3-ylmethyl)-4-[4-[2-chloro-4-[[1-methyl-5-[1-[5-(methylamino)-2-pyridyl]-3-(trifluoromethyl)pyrazol-4-yl]imidazole-2-carbonyl]amino]benzoyl]piperazine-1-carbonyl]piperidin-1-ium-1-yl]acetic acid. 1:1 formate], 0.35 µM.
Consider `Cn1c(-c2cn(-c3cc4[nH]c(C(=O)NCC(O)C(F)(F)F)cc4cn3)nc2C(F)(F)F)cnc1C(=O)Nc1ccc(C(=O)N2CCN(C(=O)[C@H]3CC[N@+](CC(=O)O)(CC4CNC4)CC3)CC2)c(Cl)c1` (stereo partly drawn) [Example 117, cis-2-[1-(azetidin-3-ylmethyl)-4-[4-[2-chloro-4-[[1-methyl-5-[1-[2-[(3,3,3-trifluoro-2-hydroxy-propyl)carbamoyl]-1H-pyrrolo[3,2-c]pyridin-6-yl]-3-(trifluoromethyl)pyrazol-4-yl]imidazole-2-carbonyl]amino]benzoyl]piperazine-1-carbonyl]piperidin-1-ium-1-yl]acetic acid. 1:1 2,2,2-trifluoroacetate], for which the IC90 is 0.215 µM.
